We go through three molecules from ChEMBL document CHEMBL1949655, “Neomycin-phenolic conjugates: polycationic amphiphiles with broad-spectrum antibacterial activity, low hemolytic activity and weak serum protein binding” (Bioorg Med Chem Lett, 2012).

≈ marks a conversion by molar mass, not a printed value.

A short description of series [1]: Aqueous solubility of the compound. Format: physicochemical. As to conditions: buffer.
The test system of series [2] is Stenotrophomonas maltophilia. Nature of the series: microbe, parasite or virus in culture. Format: functional. As to conditions: isolate CAN-ICU 62584, 24 h.
Description: Antibacterial activity against Stenotrophomonas maltophilia isolate CAN-ICU 62584 after 24 hrs by macrobroth dilution method
In series [3] the test system is Escherichia coli. As to the kind of experiment: microbe, parasite or virus in culture. Format: functional. The note with it: isolate CAN-ICU 63074, 24 h.
Description: Antibacterial activity against Escherichia coli isolate CAN-ICU 63074 after 24 hrs by macrobroth dilution method in the presence of bovine serum albumin
Series [4] concerns Streptococcus pneumoniae. Nature of the series: microbe, parasite or virus in culture. Format: functional. The note with it: ATCC 49619, 24 h.
Description: Antibacterial activity against Streptococcus pneumoniae ATCC 49619 after 24 hrs by macrobroth dilution method
Series [5] concerns Staphylococcus epidermidis. As to the kind of experiment: microbe, parasite or virus in culture. Format: functional. As to conditions: isolate CAN-ICU61589, 24 h.
Description: Antibacterial activity against methicillin-resistant Staphylococcus epidermidis isolate CAN-ICU 61589 after 24 hrs by macrobroth dilution method
Series [6] deals with Staphylococcus epidermidis. Nature of the series: microbe, parasite or virus in culture. The series is classed as functional. The note with it: Staphylococcus epidermidis, 81388, 24 h.
Description: Antibacterial activity against methicillin-susceptible Staphylococcus epidermidis 81388 after 24 hrs by macrobroth dilution method in the presence of bovine serum albumin
Series [7] has as its system Pseudomonas aeruginosa. Nature of the series: Ratio of MIC90 of neomycin sulfate to MIC90 of compound against Pseudomonas aeruginosa ATCC 27853. Format: functional.
The test system of series [8] is Acinetobacter baumannii. As to the kind of experiment: microbe, parasite or virus in culture. Format: functional. As to conditions: isolate CAN-ICU 63169, 24 h.
Description: Antibacterial activity against Acinetobacter baumannii 63169 isolate CAN-ICU after 24 hrs by macrobroth dilution method
In series [9] the test system is Pseudomonas aeruginosa. Nature of the series: Ratio of MIC90 of neomycin sulfate to MIC90 of compound against Pseudomonas aeruginosa 62308. Format: functional.
The subject of series [10] is Escherichia coli. As to the kind of experiment: microbe, parasite or virus in culture. Format: functional. As to conditions: isolate CAN-ICU 63074, 24 h. This is another data set of the same source.
Description: Antibacterial activity against Escherichia coli isolate CAN-ICU 63074 after 24 hrs by macrobroth dilution method
In series [11] the test system is Pseudomonas aeruginosa. Nature of the series: microbe, parasite or virus in culture. Format: functional. The note with it: isolate CAN-ICU 62308, 24 h.
Description: Antibacterial activity against Pseudomonas aeruginosa isolate CAN-ICU 62308 after 24 hrs by macrobroth dilution method
Series [12] deals with Pseudomonas aeruginosa. As to the kind of experiment: microbe, parasite or virus in culture. The note with it: ATCC 27853, 24 h. Format: functional.
Description: Antibacterial activity against Pseudomonas aeruginosa ATCC 27853 after 24 hrs by macrobroth dilution method
The test system of series [13] is Pseudomonas aeruginosa. As to the kind of experiment: microbe, parasite or virus in culture. The series is classed as functional. As to conditions: isolate CAN-ICU 62308, 24 h. The source holds these as a separate data set.
Description: Antibacterial activity against Pseudomonas aeruginosa isolate CAN-ICU 62308 after 24 hrs by macrobroth dilution method in the presence of bovine serum albumin
Series [14] deals with Staphylococcus epidermidis. Nature of the series: microbe, parasite or virus in culture. The series is classed as functional, isolate CAN-ICU 61589. The note with it: isolate CAN-ICU61589, 24 h.
Description: Antibacterial activity against methicillin-resistant Staphylococcus epidermidis isolate CAN-ICU 61589 after 24 hrs by macrobroth dilution method in the presence of bovine serum albumin
In series [15] the test system is Enterococcus faecalis. Nature of the series: microbe, parasite or virus in culture. The series is classed as functional. The note with it: ATCC 29212, 24 h.
Description: Antibacterial activity against Enterococcus faecalis ATCC 29212 after 24 hrs by macrobroth dilution method
The subject of series [16] is Escherichia coli. Nature of the series: microbe, parasite or virus in culture. Format: functional. The note with it: ATCC 25922, 24 h.
Description: Antibacterial activity against Escherichia coli ATCC 25922 after 24 hrs by macrobroth dilution method in the presence of bovine serum albumin
Series [17] in a line: Toxicity in human erythrocytes assessed as hemolysis at 100 ug/ml by spectrophotometry. The note with it: at 100 µg/mL.
Series [18] deals with Enterococcus faecium. As to the kind of experiment: microbe, parasite or virus in culture. The note with it: ATCC 27270, 24 h. The series is classed as functional.
Description: Antibacterial activity against Enterococcus faecium ATCC 27270 after 24 hrs by macrobroth dilution method
Series [19] concerns Klebsiella pneumoniae. Nature of the series: microbe, parasite or virus in culture. The series is classed as functional. The note with it: ATCC 13883, 24 h.
Description: Antibacterial activity against Klebsiella pneumoniae ATCC 13883 after 24 hrs by macrobroth dilution method in the presence of bovine serum albumin
The subject of series [20] is Staphylococcus aureus. As to the kind of experiment: microbe, parasite or virus in culture. As to conditions: ATCC 29213, 24 h. Format: functional.
Description: Antibacterial activity against Staphylococcus aureus ATCC 29213 after 24 hrs by macrobroth dilution method in the presence of bovine serum albumin
Series [21] has as its system Staphylococcus aureus. As to the kind of experiment: microbe, parasite or virus in culture. The series is classed as functional. As to conditions: ATCC 29213, 24 h. This is another data set of the same source.
Description: Antibacterial activity against Staphylococcus aureus ATCC 29213 after 24 hrs by macrobroth dilution method
Series [22] has as its system Escherichia coli. Nature of the series: microbe, parasite or virus in culture. The series is classed as functional. The note with it: ATCC 25922, 24 h. This is another data set of the same source.
Description: Antibacterial activity against Escherichia coli ATCC 25922 after 24 hrs by macrobroth dilution method
Series [23] deals with Escherichia coli. Nature of the series: microbe, parasite or virus in culture. The series is classed as functional. The note with it: isolate CAN-ICU 61714, 24 h.
Description: Antibacterial activity against Escherichia coli isolate CAN-ICU 61714 after 24 hrs by macrobroth dilution method
Series [24] concerns Acinetobacter baumannii. Nature of the series: microbe, parasite or virus in culture. The series is classed as functional. As to conditions: isolate CAN-ICU 63169, 24 h. The source holds these as a separate data set.
Description: Antibacterial activity against Acinetobacter baumannii isolate CAN-ICU 63169 after 24 hrs by macrobroth dilution method in the presence of bovine serum albumin
The subject of series [25] is Enterococcus faecium. Nature of the series: microbe, parasite or virus in culture. The note with it: ATCC 27270, 24 h. Format: functional. The source holds these as a separate data set.
Description: Antibacterial activity against Enterococcus faecium ATCC 27270 after 24 hrs by macrobroth dilution method in the presence of bovine serum albumin
Series [26] deals with Streptococcus pneumoniae. As to the kind of experiment: microbe, parasite or virus in culture. As to conditions: ATCC 49619, 24 h. Format: functional. This is another data set of the same source.
Description: Antibacterial activity against Streptococcus pneumoniae ATCC 49619 after 24 hrs by macrobroth dilution method in the presence of bovine serum albumin
Series [27] deals with Pseudomonas aeruginosa. As to the kind of experiment: microbe, parasite or virus in culture. Format: functional. As to conditions: ATCC 27853, 24 h. The source holds these as a separate data set.
Description: Antibacterial activity against Pseudomonas aeruginosa ATCC 27853 after 24 hrs by macrobroth dilution method in the presence of bovine serum albumin
Series [28] concerns Klebsiella pneumoniae. Nature of the series: microbe, parasite or virus in culture. Format: functional. The note with it: ATCC 13883, 24 h. This is another data set of the same source.
Description: Antibacterial activity against Klebsiella pneumoniae ATCC 13883 after 24 hrs by macrobroth dilution method
In series [29] the test system is Stenotrophomonas maltophilia. As to the kind of experiment: microbe, parasite or virus in culture. Format: functional. The note with it: isolate CAN-ICU 62584, 24 h. The source holds these as a separate data set.
Description: Antibacterial activity against Stenotrophomonas maltophilia isolate CAN-ICU 62584 after 24 hrs by macrobroth dilution method in the presence of bovine serum albumin
Series [30] relates to Enterococcus faecalis. Nature of the series: microbe, parasite or virus in culture. The series is classed as functional. The note with it: ATCC 29212, 24 h. The source holds these as a separate data set.
Description: Antibacterial activity against Enterococcus faecalis ATCC 29212 after 24 hrs by macrobroth dilution method in the presence of bovine serum albumin
For series [31], the system named is Staphylococcus epidermidis. Nature of the series: microbe, parasite or virus in culture. The series is classed as functional. As to conditions: Staphylococcus epidermidis, 81388, 24 h. This is another data set of the same source.
Description: Antibacterial activity against methicillin-susceptible Staphylococcus epidermidis 81388 after 24 hrs by macrobroth dilution method
For series [32], the system named is Staphylococcus aureus. As to the kind of experiment: microbe, parasite or virus in culture. The series is classed as functional. The note with it: ATCC 33592, 24 h.
Description: Antibacterial activity against methicillin-resistant Staphylococcus aureus ATCC 33592 after 24 hrs by macrobroth dilution method
The subject of series [33] is Staphylococcus aureus. As to the kind of experiment: microbe, parasite or virus in culture. The series is classed as functional. The note with it: ATCC 33592, 24 h. This is another data set of the same source.
Description: Antibacterial activity against methicillin-resistant Staphylococcus aureus ATCC 33592 after 24 hrs by macrobroth dilution method in the presence of bovine serum albumin
The subject of series [34] is Escherichia coli. Nature of the series: microbe, parasite or virus in culture. Format: functional. As to conditions: isolate CAN-ICU 61714, 24 h. This is another data set of the same source.
Description: Antibacterial activity against Escherichia coli isolate CAN-ICU 61714 after 24 hrs by macrobroth dilution method in the presence of bovine serum albumin

With `CC(C)(C)CC(C)(C)c1ccc(O)c(Cc2ccc(Cl)cc2Cl)c1` [CLOFOCTOL], the solubility entry in series [1] was “Insoluble”.

Take `CC(C)(C)CC(C)(C)c1ccc(OCc2cn(C[C@H]3O[C@@H](O[C@@H]4[C@@H](O)[C@H](N)C[C@H](N)[C@H]4O[C@H]4O[C@H](CN)[C@@H](O)[C@H](O)[C@H]4N)[C@H](O)[C@@H]3O[C@H]3O[C@@H](CN)[C@@H](O)[C@H](O)[C@H]3N)nn2)c(Cc2ccc(Cl)cc2Cl)c1`: the MIC90 in series [2] came out at 512 µg/mL (≈ 491 µM); with Escherichia coli [3] it was 256 µg/mL (≈ 245 µM); against Streptococcus pneumoniae [4], 64 µg/mL (≈ 61.4 µM); in series [5], 1 µg/mL (≈ 0.959 µM); in series [6] it was 2 µg/mL (≈ 1.92 µM); with Acinetobacter baumannii [8], 64 µg/mL (≈ 61.4 µM). For the same molecule, the MIC90 against Escherichia coli [10] turned out to be 64 µg/mL (≈ 61.4 µM); in the series with Pseudomonas aeruginosa [11] it was 64 µg/mL (≈ 61.4 µM); against Pseudomonas aeruginosa [12], 128 µg/mL (≈ 123 µM); against Pseudomonas aeruginosa [13], 128 µg/mL (≈ 123 µM); in series [14] it was 4 µg/mL (≈ 3.83 µM); in the series on Enterococcus faecalis [15], 8 µg/mL (≈ 7.67 µM). Also, the MIC90 worked out at 64 µg/mL (≈ 61.4 µM) against Escherichia coli [16]; 8 µg/mL (≈ 7.67 µM) against Enterococcus faecium [18]; 64 µg/mL (≈ 61.4 µM) against Klebsiella pneumoniae [19]; 8 µg/mL (≈ 7.67 µM) in the series on Staphylococcus aureus [20]; 8 µg/mL (≈ 7.67 µM) against Staphylococcus aureus [21]; 16 µg/mL (≈ 15.3 µM) against Escherichia coli [22]. In addition, the MIC90 in the series with Escherichia coli [23] is 64 µg/mL (≈ 61.4 µM); in the series with Acinetobacter baumannii [24], 256 µg/mL (≈ 245 µM); against Enterococcus faecium [25], 8 µg/mL (≈ 7.67 µM); against Streptococcus pneumoniae [26], 128 µg/mL (≈ 123 µM); against Pseudomonas aeruginosa [27], 512 µg/mL (≈ 491 µM); in the series on Klebsiella pneumoniae [28] it was 64 µg/mL (≈ 61.4 µM). In addition, the MIC90 in series [29] is more than 512 µg/mL; against Enterococcus faecalis [30] it was 16 µg/mL (≈ 15.3 µM); in [31] it was 4 µg/mL (≈ 3.83 µM); against Staphylococcus aureus [32] it was 8 µg/mL (≈ 7.67 µM); with Staphylococcus aureus [33], 16 µg/mL (≈ 15.3 µM); against Escherichia coli [34] it was 128 µg/mL (≈ 123 µM). For the same molecule, the Ratio in the series with Pseudomonas aeruginosa [7] and in the series on Pseudomonas aeruginosa [9] was 4 throughout. In addition, the hemolysis at 100 ug/ml in series [17] amounted to 27.5%.

Take `CC(C)(C)CC(C)(C)c1ccc(OCCCCc2cn(C[C@H]3O[C@@H](O[C@@H]4[C@@H](O)[C@H](N)C[C@H](N)[C@H]4O[C@H]4O[C@H](CN)[C@@H](O)[C@H](O)[C@H]4N)[C@H](O)[C@@H]3O[C@H]3O[C@@H](CN)[C@@H](O)[C@H](O)[C@H]3N)nn2)c(Cc2ccc(Cl)cc2Cl)c1`: the MIC90 in series [2] came out at 512 µg/mL (≈ 472 µM); in the series with Escherichia coli [3], 256 µg/mL (≈ 236 µM); against Streptococcus pneumoniae [4], 64 µg/mL (≈ 59 µM); in series [5], 8 µg/mL (≈ 7.37 µM); in series [6], 4 µg/mL (≈ 3.69 µM); in the series with Acinetobacter baumannii [8] it was 256 µg/mL (≈ 236 µM). The MIC90 against Escherichia coli [10] is 128 µg/mL (≈ 118 µM); in the series on Pseudomonas aeruginosa [11], 64 µg/mL (≈ 59 µM); in the series with Pseudomonas aeruginosa [12] it was 128 µg/mL (≈ 118 µM); in the series on Pseudomonas aeruginosa [13] it was 256 µg/mL (≈ 236 µM); in series [14], 4 µg/mL (≈ 3.69 µM); against Enterococcus faecalis [15], 64 µg/mL (≈ 59 µM). Also, the MIC90 stood at 64 µg/mL (≈ 59 µM) against Escherichia coli [16]; 8 µg/mL (≈ 7.37 µM) with Enterococcus faecium [18]; 32 µg/mL (≈ 29.5 µM) in the series with Klebsiella pneumoniae [19]; 16 µg/mL (≈ 14.7 µM) against Staphylococcus aureus [20]; 16 µg/mL (≈ 14.7 µM) against Staphylococcus aureus [21]; 64 µg/mL (≈ 59 µM) against Escherichia coli [22]. The MIC90 is 64 µg/mL (≈ 59 µM) in the series on Escherichia coli [23]; more than 512 µg/mL in the series with Acinetobacter baumannii [24]; 16 µg/mL (≈ 14.7 µM) against Enterococcus faecium [25]; 64 µg/mL (≈ 59 µM) against Streptococcus pneumoniae [26]; 512 µg/mL (≈ 472 µM) against Pseudomonas aeruginosa [27]; 32 µg/mL (≈ 29.5 µM) in the series with Klebsiella pneumoniae [28]. The MIC90 in [29] is more than 512 µg/mL; in the series with Enterococcus faecalis [30], 64 µg/mL (≈ 59 µM); in series [31] it was 8 µg/mL (≈ 7.37 µM); with Staphylococcus aureus [32], 16 µg/mL (≈ 14.7 µM); with Staphylococcus aureus [33], 32 µg/mL (≈ 29.5 µM); in the series with Escherichia coli [34] it was 128 µg/mL (≈ 118 µM). Moreover, the Ratio in the series on Pseudomonas aeruginosa [7] and in the series with Pseudomonas aeruginosa [9] was 4 each time. Besides, the hemolysis at 100 ug/ml in [17] came to 22.5%.
